Test results: patent US20210315893A1 (Galapagos NV, priority 2017, published 2021)

How the values were obtained:
[1] = target: T1, human GPCR sphingosine 1-phosphate receptor 2 (Homo sapiens, UniProt O95136); experiment: S1PR2 antagonist Ca2+ flux assay; type: cell-based; conditions: antagonist mode, CHO-S1PR2 cells, S1P at EC80, Ca2+ fluorescence; read-out: S1P2 EC50 (nM), S1P2 antagonist EC50
T1 construct: host or cells: CHO
Experimental: Triggering of S1PR2 by administration of Sphingosine-1-phosphate leads to a transient increase in intracellular Ca^2+. The Ca^2+ flux assays are measuring the release of Ca^2+ intracellularly by use of a Ca^2+ sensitive fluorescent dye. The assay is firstly run in agonist mode (incubation of compounds alone) to ensure that the Ca^2+ released measured is not caused by the test compound having an agonistic effect. Then the assay is continued in antagonist mode (Sphingosine-1-Phosphate added to incubated medium containing the test compounds).
CHO cells stably overexpressing human GPCR sphingosine 1-phosphate receptor 2 (CHO-S1PR2 Perkin Elmer; ES-594-A) are seeded from a frozen stock in 384 wells sterile microplates (50 μL; 7,500 cells/well) and are incubated overnight at 37° C. and 5% CO2. The next day cells are washed twice with starvation medium (F-12 Ham's medium containing 0.1% BSA (Fatty acid free: FAF)) and left in 25 μL starvation medium for 1 h at 37° C., 5% CO2. After this starvation cells are incubated with 25 μL buffer containing the Ca^2+-sensitive fluorescent dye (0.5 mg Fluo8+125 mg Allura Red in 100 mL of 1% DMSO, in HBSS+20 mM Hepes+5 mM probenecid). The cells are incubated for an additional 1 h after which 10 μL compounds, diluted in HBSS buffer with 20 mM Hepes and 0.1% BSA (FAF), are added to the cells and intracellular Ca2+ changes are immediately measured by reading fluorescence during 3 min (FDSS/pCELL reader). The ratio of the maximal fluorescence over the background fluorescence before compound injection is used to determine compound response.
After readout of the agonist activity, the plates are incubated for 15 min at 37° C. and 5% CO2. Then, cells are stimulated with 10 μL Sphingosine-1-Phosphate (S1P) (Avanti Polar lipids-860492P) at its EC80 concentration. Intracellular Ca2+ changes are immediately measured by reading fluorescence during 3 min (FDSS/pCELL reader). The ratio of the maximal fluorescence over the background fluorescence before compound injection is used to determine compound response.
The obtained ratio's for agonist and antagonist readout were normalized versus vehicle and EC 100 of S1P ascontrols for agonist mode and versus vehicle and […]. From these normalized data EC50 of the compounds are derived.

[2] = target: T2, S1PR2 (Homo sapiens, UniProt O95136); experiment: S1PR2 binding assay (competition with radioactively labeled S1P, SpA); conditions: membranes from stable cell line over expressing S1PR2, SpA beads; read-out: S1P2 EC50 (nM), S1PR2 binding EC50
T2 construct: expressed in transfected cells
Experimental: The following assay can be used for determination of S1PR2 binding. The binding assay measures the potential to compete with radioactively labeled S1P for binding to the receptor.
The assay is performed in a96 well plate where the following reagents are added. First 50 μL compound is added into the assay plate, followed by addition of 100 μL ofa mixture consisting of membrane and Scintillation proximity Assay (SpA) beads [mixture consists […] membranes derived from stable cell line over expressing SPR2, 0.5 mg/well Polyvinyltoluene-Wheat Germ-Agglutinin (PVT-WGA) beads (Perkin Elmer, RPNQOO1)]. All components are diluted in assay buffer containing 20 mM Tris pH 7.5; 10 mM MgCl2; 100 mM NaCl; 0.4% BSA FAF; 1 mM Na3VO4) and incubated for 15 min until addition to the assay plate. Subsequently, 50 ul of radioactively labeled S1P is added to the wells (Sphingosine, D-erythro-[3-3H] 1-phosphate; ARC; ART0778). After an incubation for 2 h at room temperature, plates are centrifuged at 2000 rpm during 20 min. Plates are read on a Topcount reader (Perkin Elmer) immediately after centrifugation (readout time, 1 min/well).

T2 sequence (O95136 whole entry): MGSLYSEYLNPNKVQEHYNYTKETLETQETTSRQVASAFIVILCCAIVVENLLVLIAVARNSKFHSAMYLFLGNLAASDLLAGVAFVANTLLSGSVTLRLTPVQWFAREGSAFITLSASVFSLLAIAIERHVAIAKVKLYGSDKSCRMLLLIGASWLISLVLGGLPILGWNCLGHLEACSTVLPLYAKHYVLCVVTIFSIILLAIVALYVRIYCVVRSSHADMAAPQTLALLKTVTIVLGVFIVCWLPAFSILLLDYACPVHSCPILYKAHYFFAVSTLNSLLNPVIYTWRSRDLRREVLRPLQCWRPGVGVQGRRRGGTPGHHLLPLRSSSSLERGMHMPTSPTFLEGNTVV
T1 sequence (O95136 whole entry): as above

Row | SMILES | EC50 [1] [nM] | EC50 [2] [nM]
1 | CCOc1cc2nc(Cc3nn(CC(=O)O)c(=O)c4ccccc34)[nH]c2cc1F [Compound 129, 2-[4-[(5-ethoxy-6-fluoro-1H-benzimidazol-2-yl)methyl]-1-oxo-phthalazin-2-yl]acetic acid] | 79.3 | 1390
2 | O=C(O)Cn1nc(Cc2nc3cc(OCC(F)F)c(F)cc3[nH]2)c2ccccc2c1=O [Compound 130, 2-[4-[[5-(2,2-difluoroethoxy)-6-fluoro-1H-benzimidazol-2-yl]methyl]-1-oxo-phthalazin-2-yl]acetic acid] | 63.8 | 2500
3 | CC(C)(C)NC(=O)Cn1nc(Cc2nc3cc(Cl)c(OC(F)(F)F)cc3[nH]2)c2c(c1=O)CCCC2 [Compound 147] | 1380 | 1090
4 | N#Cc1cc2nc(Cc3nn(CC(=O)N4CCOCC45CCC5)c(=O)c4ccccc34)[nH]c2cc1OCC(F)F [Compound 189, 6-(2,2-difluoroethoxy)-2-[[3-[2-(6-oxa-9-azaspiro[3.5]nonan-9-yl)-2-oxo-ethyl]-4-oxo-phthalazin-1-yl]methyl]-1H-benzimidazole-5-carbonitrile] | 143 | 558
5 | CC(C)(C)C(O)CNC(=O)Cn1nc(Cc2nc3cc(OCC(F)F)c(C#N)cc3[nH]2)c2ccccc2c1=O (stereo not drawn) [Compound 222, 2-[4-[[6-cyano-5-(2,2-difluoroethoxy)-1H-benzimidazol-2-yl]methyl]-1-oxo-phthalazin-2-yl]-N-(2-hydroxy-3,3-dimethylbutyl)acetamide] | 26.1 | 137
6 | N#Cc1cc2[nH]c(Cc3nn(CC(=O)NCC(F)F)c(=O)c4ccccc34)nc2cc1OCC(F)F [Compound 223, 2-[4-[[6-cyano-5-(2,2-difluoroethoxy)-1H-benzimidazol-2-yl]methyl]-1-oxo-phthalazin-2-yl]-N-(2,2-difluoroethyl)acetamide] | 68.8 | 330
7 | N#Cc1cc2[nH]c(Cc3nn(CC(=O)NCCC(F)(F)F)c(=O)c4ccccc34)nc2cc1OCC(F)F [Compound 224, 2-[4-[[6-cyano-5-(2,2-difluoroethoxy)-1H-benzimidazol-2-yl]methyl]-1-oxo-phthalazin-2-yl]-N-(3,3,3-trifluoropropyl)acetamide] | 19.6 | 232
8 | N#Cc1cc2[nH]c(Cc3nn(CC(=O)NC(C#N)C4CC4)c(=O)c4ccccc34)nc2cc1OCC(F)F (stereo not drawn) [Compound 226, N-[cyano-(cyclopropyl)methyl]-2-[4-[[6-cyano-5-(2,2-difluoroethoxy)-1H-benzimidazol-2-yl]methyl]-1-oxo-phthalazin-2-yl]acetamide] | 66.2 | 552
9 | N#Cc1cc2[nH]c(Cc3nn(CC(=O)NCC(F)(F)CO)c(=O)c4ccccc34)nc2cc1OCC(F)F [Compound 228, 2-[4-[[6-cyano-5-(2,2-difluoroethoxy)-1H-benzimidazol-2-yl]methyl]-1-oxo-phthalazin-2-yl]-N-(2,2-difluoro-3-hydroxypropyl)acetamide] | 21.1 | 52.5
10 | N#Cc1cc2[nH]c(Cc3nn(CC(=O)NCC(F)(F)F)c(=O)c4ccccc34)nc2cc1OCC(F)F [Compound 230, 2-[4-[[6-cyano-5-(2,2-difluoroethoxy)-1H-benzimidazol-2-yl)methyl]-1-oxo-phthalazin-2-yl]-N-(2,2,2-trifluoroethyl)acetamide] | 408 | 1950
11 | N#Cc1cc2[nH]c(Cc3nn(CC(=O)N4CCCC(O)C4)c(=O)c4ccccc34)nc2cc1OCC(F)F (stereo not drawn) [Compound 231, 6-(2,2-difluoroethoxy)-2-[[3-[2-(3-hydroxy-1-piperidyl)-2-oxo-ethyl]-4-oxo-phthalazin-1-yl]methyl]-3H-benzimidazole-5-carbonitrile] | 77.9 | 453
12 | CCS(=O)(=O)C1CCN(C(=O)Cn2nc(Cc3nc4cc(OCC(F)F)c(C#N)cc4[nH]3)c3ccccc3c2=O)CC1 [Compound 240, 6-(2,2-difluoroethoxy)-2-[[3-[2-(4-ethylsulfonyl-1-piperidyl)-2-oxo-ethyl]-4-oxo-phthalazin-1-yl]methyl]-3H-benzimidazole-5-carbonitrile] | 345 | 1300
13 | CN(C)C(=O)CN(C)C(=O)Cn1nc(Cc2nc3cc(OCC(F)F)c(C#N)cc3[nH]2)c2ccccc2c1=O [Compound 241, 2-[4-[[6-cyano-5-(2,2-difluoroethoxy)-1H-benzimidazol-2-yl]methyl]-1-oxo-phthalazin-2-yl]-N-[2-(dimethylamino)-2-oxo-ethyl]-N-methyl-acetamide] | 47.2 | 372
14 | CCOc1cc2nc(Cc3nn(CC(=O)NS(C)(=O)=O)c(=O)c4ccccc34)[nH]c2cc1F [Compound 247, 2-[4-[(5-ethoxy-6-fluoro-1H-benzimidazol-2-yl)methyl]-1-oxo-phthalazin-2-yl]-N-methylsulfonyl-acetamide] | 87.9 | 2470

Continued by falling EC50 [1], values first:

Row | EC50 [1] [nM] | EC50 [2] [nM] | SMILES
15 | 958 | 2090 | CN(C)C(=O)C1CCN(C(=O)Cn2nc(Cc3nc4cc(OCC(F)F)c(C#N)cc4[nH]3)c3ccccc3c2=O)CC1 [Compound 236, 1-[2-[4-[[6-cyano-5-(2,2-difluoroethoxy)-1H-benzimidazol-2-yl]methyl]-1-oxo-phthalazin-2-yl]acetyl]-N,N-dimethyl-piperidine-4-carboxamide]
16 | 781 | 1740 | N#Cc1cc2[nH]c(Cc3nn(CC(=O)N4CC5(CCOCC5)C4)c(=O)c4ccccc34)nc2cc1OCC(F)F [Compound 239, 6-(2,2-difluoroethoxy)-2-[[3-[2-(7-oxa-2-azaspiro[3.5]nonan-2-yl)-2-oxo-ethyl]-4-oxo-phthalazin-1-yl]methyl]-3H-benzimidazole-5-carbonitrile]
17 | 120 | 503 | N#Cc1cc2[nH]c(Cc3nn(CC(=O)NCCS(N)(=O)=O)c(=O)c4ccccc34)nc2cc1OCC(F)F [Compound 229, 2-[4-[[6-cyano-5-(2,2-difluoroethoxy)-1H-benzimidazol-2-yl]methyl]-1-oxo-phthalazin-2-yl]-N-(2-sulfamoylethyl)acetamide]
18 | 55.8 | 650 | CC(C)(O)C1CCCN(C(=O)Cn2nc(Cc3nc4cc(OCC(F)F)c(C#N)cc4[nH]3)c3ccccc3c2=O)C1 (stereo not drawn) [Compound 237, 6-(2,2-difluoroethoxy)-2-[[3-[2-[3-(1-hydroxy-1-methyl-ethyl)-1-piperidyl]-2-oxo-ethyl]-4-oxo-phthalazin-1-yl]methyl]-3H-benzimidazole-5-carbonitrile]
19 | 16.3 | 122 | N#Cc1cc2[nH]c(Cc3nn(CC(=O)NCC4CC(F)(F)C4)c(=O)c4ccccc34)nc2cc1OCC(F)F [Compound 232, 2-[4-[[6-cyano-5-(2,2-difluoroethoxy)-1H-benzimidazol-2-yl]methyl]-1-oxo-phthalazin-2-yl]-N-[(3,3-difluorocyclobutyl)methyl]acetamide]
20 | 14.3 | 609 | CS(=O)(=O)NC(=O)Cn1nc(Cc2nc3cc(OCC(F)F)c(Cl)cc3[nH]2)c2cc(C#N)ccc2c1=O [Compound 245, 2-[4-[[6-chloro-5-(2,2-difluoroethoxy)-1H-benzimidazol-2-yl]methyl]-6-cyano-1-oxo-phthalazin-2-yl]-N-methylsulfonyl-acetamide]
21 | 13.6 | 775 | CC(C(=O)NS(C)(=O)=O)n1nc(Cc2nc3cc(OCC4CC4)c(Cl)cc3[nH]2)c2ccccc2c1=O (stereo not drawn) [Compound 246, N-{2-[4-(6-Chloro-5-cyclopropylmethoxy-1H-benzoimidazol-2-ylmethvl)-1-oxo-1H-phthalazin-2-yl]-propionyl}-methanesulfonamide]
